# Results reported in patent US12702691B2, “Extract of an herbal composition as antimicrobial and/or antibiofilm agent” (ALPHANOSOS S.A.S., priority 2016, dated 2026).
# Assays:
# B-A17 = experiment: Planktonic growth with extract and antibiotic relative to growth without both (Example 14); format: cell-based
# Experimental: (§1) Starting from the herbal composition, the corresponding water extracts (or processed samples) was prepared according to the previously described Method B using 2.06 g of the above herbal composition with 40 mL water with 100 g/L sucrose for water extraction and including the decantation step before filtration. In an independent water extract preparation without sucrose, it has been measured that 2.06 g/40 mL of herbal composition corresponds to 14.5 g/L as deduced from the weight of the lyophilized dry herbal extract.
# (§2) In Example 14 we calculate the growth of the bacteria in presence of antibiotic and/or herbal mix relative to the growth in the absence of both antibiotic and herbal mix extract.
# B-A21 = experiment: as above; format: cell-based
# Experimental: as §1, §2
# [1] = M[20C]-576 0 μg/mL, antibiotic 3.91 μg/mL
# [2] = M[20C]-576 0 μg/mL, antibiotic 7.81 μg/mL
# [3] = M[20C]-576 0 μg/mL, antibiotic 15.63 μg/mL
# [4] = M[20C]-576 0 μg/mL, antibiotic 31.25 μg/mL
# [5] = M[20C]-576 0 μg/mL, antibiotic 62.50 μg/mL
# [6] = M[20C]-576 0 μg/mL, antibiotic 125 μg/mL
# [7] = M[20C]-576 0 μg/mL, antibiotic 250 μg/mL
# [8] = M[20C]-576 0 μg/mL, antibiotic 500 μg/mL
# [9] = M[20C]-576 0 μg/mL, antibiotic 1000 μg/mL
# [10] = M[20C]-576 0 μg/mL, antibiotic 2000 μg/mL
# [11] = M[20C]-576 0 μg/mL, antibiotic 4000 μg/mL
# [12] = M[20C]-576 90.6 μg/mL, antibiotic 3.91 μg/mL
# [13] = M[20C]-576 90.6 μg/mL, antibiotic 7.81 μg/mL
# [14] = M[20C]-576 90.6 μg/mL, antibiotic 15.63 μg/mL
# [15] = M[20C]-576 90.6 μg/mL, antibiotic 31.25 μg/mL
# [16] = M[20C]-576 90.6 μg/mL, antibiotic 62.50 μg/mL
# [17] = M[20C]-576 90.6 μg/mL, antibiotic 125 μg/mL
# [18] = M[20C]-576 90.6 μg/mL, antibiotic 250 μg/mL
# [19] = M[20C]-576 90.6 μg/mL, antibiotic 500 μg/mL
# [20] = M[20C]-576 90.6 μg/mL, antibiotic 1000 μg/mL
# [21] = M[20C]-576 90.6 μg/mL, antibiotic 2000 μg/mL
# [22] = M[20C]-576 90.6 μg/mL, antibiotic 4000 μg/mL
# [23] = M[20C]-576 181.3 μg/mL, antibiotic 3.91 μg/mL
# [24] = M[20C]-576 181.3 μg/mL, antibiotic 7.81 μg/mL
# [25] = M[20C]-576 181.3 μg/mL, antibiotic 15.63 μg/mL
# [26] = M[20C]-576 181.3 μg/mL, antibiotic 31.25 μg/mL
# [27] = M[20C]-576 181.3 μg/mL, antibiotic 62.50 μg/mL
# [28] = M[20C]-576 181.3 μg/mL, antibiotic 125 μg/mL
# [29] = M[20C]-576 181.3 μg/mL, antibiotic 250 μg/mL
# [30] = M[20C]-576 181.3 μg/mL, antibiotic 500 μg/mL
# [31] = M[20C]-576 181.3 μg/mL, antibiotic 1000 μg/mL
# [32] = M[20C]-576 181.3 μg/mL, antibiotic 2000 μg/mL
# [33] = M[20C]-576 181.3 μg/mL, antibiotic 4000 μg/mL
smiles,measurement,setting,value
CC1(C)S[C@@H]2[C@H](NC(=O)[C@H](N)c3ccccc3)C(=O)N2[C@H]1C(=O)O [Ampicillin],planktonic growth relative to the growth in the absence of both extract and antibiotic,B-A17; [1],176%
same,planktonic growth relative to the growth in the absence of both extract and antibiotic,B-A17; [2],176%
same,planktonic growth relative to the growth in the absence of both extract and antibiotic,B-A17; [3],148%
same,planktonic growth relative to the growth in the absence of both extract and antibiotic,B-A17; [4],131%
same,planktonic growth relative to the growth in the absence of both extract and antibiotic,B-A17; [5],112%
same,planktonic growth relative to the growth in the absence of both extract and antibiotic,B-A17; [6],2%
same,planktonic growth relative to the growth in the absence of both extract and antibiotic,B-A17; [7],0%
same,planktonic growth relative to the growth in the absence of both extract and antibiotic,B-A17; [8],0%
same,planktonic growth relative to the growth in the absence of both extract and antibiotic,B-A17; [9],0%
same,planktonic growth relative to the growth in the absence of both extract and antibiotic,B-A17; [10],0%
same,planktonic growth relative to the growth in the absence of both extract and antibiotic,B-A17; [11],−1%
same,planktonic growth relative to the growth in the absence of both extract and antibiotic,B-A17; [12],64%
same,planktonic growth relative to the growth in the absence of both extract and antibiotic,B-A17; [13],76%
same,planktonic growth relative to the growth in the absence of both extract and antibiotic,B-A17; [14],75%
same,planktonic growth relative to the growth in the absence of both extract and antibiotic,B-A17; [15],58%
same,planktonic growth relative to the growth in the absence of both extract and antibiotic,B-A17; [16],18%
same,planktonic growth relative to the growth in the absence of both extract and antibiotic,B-A17; [17],1%
same,planktonic growth relative to the growth in the absence of both extract and antibiotic,B-A17; [18],0%
same,planktonic growth relative to the growth in the absence of both extract and antibiotic,B-A17; [19],0%
same,planktonic growth relative to the growth in the absence of both extract and antibiotic,B-A17; [20],0%
same,planktonic growth relative to the growth in the absence of both extract and antibiotic,B-A17; [21],0%
same,planktonic growth relative to the growth in the absence of both extract and antibiotic,B-A17; [22],0%
same,planktonic growth relative to the growth in the absence of both extract and antibiotic,B-A17; [23],52%
same,planktonic growth relative to the growth in the absence of both extract and antibiotic,B-A17; [24],53%
same,planktonic growth relative to the growth in the absence of both extract and antibiotic,B-A17; [25],52%
same,planktonic growth relative to the growth in the absence of both extract and antibiotic,B-A17; [26],31%
same,planktonic growth relative to the growth in the absence of both extract and antibiotic,B-A17; [27],7%
same,planktonic growth relative to the growth in the absence of both extract and antibiotic,B-A17; [28],−4%
same,planktonic growth relative to the growth in the absence of both extract and antibiotic,B-A17; [29],−4%
same,planktonic growth relative to the growth in the absence of both extract and antibiotic,B-A17; [30],−4%
same,planktonic growth relative to the growth in the absence of both extract and antibiotic,B-A17; [31],−4%
same,planktonic growth relative to the growth in the absence of both extract and antibiotic,B-A17; [32],−5%
same,planktonic growth relative to the growth in the absence of both extract and antibiotic,B-A17; [33],−1%
same,planktonic growth relative to the growth in the absence of both extract and antibiotic,B-A21; [1],153%
same,planktonic growth relative to the growth in the absence of both extract and antibiotic,B-A21; [2],132%
same,planktonic growth relative to the growth in the absence of both extract and antibiotic,B-A21; [3],131%
same,planktonic growth relative to the growth in the absence of both extract and antibiotic,B-A21; [4],132%
same,planktonic growth relative to the growth in the absence of both extract and antibiotic,B-A21; [5],116%
same,planktonic growth relative to the growth in the absence of both extract and antibiotic,B-A21; [6],150%
same,planktonic growth relative to the growth in the absence of both extract and antibiotic,B-A21; [7],113%
same,planktonic growth relative to the growth in the absence of both extract and antibiotic,B-A21; [8],112%
same,planktonic growth relative to the growth in the absence of both extract and antibiotic,B-A21; [9],106%
same,planktonic growth relative to the growth in the absence of both extract and antibiotic,B-A21; [10],−1%
same,planktonic growth relative to the growth in the absence of both extract and antibiotic,B-A21; [11],0%
same,planktonic growth relative to the growth in the absence of both extract and antibiotic,B-A21; [12],108%
same,planktonic growth relative to the growth in the absence of both extract and antibiotic,B-A21; [13],83%
same,planktonic growth relative to the growth in the absence of both extract and antibiotic,B-A21; [14],82%
same,planktonic growth relative to the growth in the absence of both extract and antibiotic,B-A21; [15],82%
same,planktonic growth relative to the growth in the absence of both extract and antibiotic,B-A21; [16],74%
same,planktonic growth relative to the growth in the absence of both extract and antibiotic,B-A21; [17],83%
same,planktonic growth relative to the growth in the absence of both extract and antibiotic,B-A21; [18],75%
same,planktonic growth relative to the growth in the absence of both extract and antibiotic,B-A21; [19],83%
same,planktonic growth relative to the growth in the absence of both extract and antibiotic,B-A21; [20],0%
same,planktonic growth relative to the growth in the absence of both extract and antibiotic,B-A21; [21],0%
same,planktonic growth relative to the growth in the absence of both extract and antibiotic,B-A21; [22],0%
same,planktonic growth relative to the growth in the absence of both extract and antibiotic,B-A21; [23],44%
same,planktonic growth relative to the growth in the absence of both extract and antibiotic,B-A21; [24],63%
same,planktonic growth relative to the growth in the absence of both extract and antibiotic,B-A21; [25],70%
same,planktonic growth relative to the growth in the absence of both extract and antibiotic,B-A21; [26],69%
same,planktonic growth relative to the growth in the absence of both extract and antibiotic,B-A21; [27],70%
same,planktonic growth relative to the growth in the absence of both extract and antibiotic,B-A21; [28],62%
same,planktonic growth relative to the growth in the absence of both extract and antibiotic,B-A21; [29],62%
same,planktonic growth relative to the growth in the absence of both extract and antibiotic,B-A21; [30],61%
same,planktonic growth relative to the growth in the absence of both extract and antibiotic,B-A21; [31],−2%
same,planktonic growth relative to the growth in the absence of both extract and antibiotic,B-A21; [32],−3%
same,planktonic growth relative to the growth in the absence of both extract and antibiotic,B-A21; [33],−2%
